Laboratory results published in ChEMBL document CHEMBL1134023, “The discovery of RFI-641 as a potent and selective inhibitor of the respiratory syncytial virus” (Bioorg Med Chem Lett, 2001).

Experiments:
[1] = Inhibitory concentration required against HSV-1 (Herpes simplex virus) by using HSV-1 in ELISA assay; assay type: functional
[2] = system: Human betaherpesvirus 5; assay: Inhibitory concentration required against HCMV (Human cytomegalovirus) by using HCMV AD169 and assay is via an indicator gene in the virus; assay type: functional, organism-based
[3] = system: Human orthopneumovirus; assay: In vitro inhibitory concentration against HRSV (Human respiratory syncytial virus) by using RSV A2 and the assay is by ELISA; assay type: functional, organism-based
[4] = system: Respiratory syncytial virus; assay: In vitro inhibitory activity against respiratory syncytial virus (RSV); assay type: functional, organism-based; conditions: human respiratory syncytial virus

SMILES | IC50 [1] [µM] | IC50 [2] [µM] | IC50 [3] [µM] | IC50 [4] [µM]
NC(=O)CCCN(CCCC(N)=O)S(=O)(=O)c1cccc(Nc2nc(Nc3cccc(S(=O)(=O)N(CCCC(N)=O)CCCC(N)=O)c3)nc(Nc3ccc(-c4ccc(Nc5nc(Nc6cccc(S(=O)(=O)N(CCCC(N)=O)CCCC(N)=O)c6)nc(Nc6cccc(S(=O)(=O)N(CCCC(N)=O)CCCC(N)=O)c6)n5)cc4S(=O)(=O)O)c(S(=O)(=O)O)c3)n2)c1 | 8.5 | 5.8 | 0.1 | –
NC(=O)CNS(=O)(=O)c1cccc(Nc2nc(Nc3cccc(S(=O)(=O)NCC(N)=O)c3)nc(Nc3ccc(-c4ccc(Nc5nc(Nc6cccc(S(=O)(=O)NCC(N)=O)c6)nc(Nc6cccc(S(=O)(=O)NCC(N)=O)c6)n5)cc4S(=O)(=O)O)c(S(=O)(=O)O)c3)n2)c1 | > 25 | 1.37 | 0.27 | –
NC(=O)CCN(CCC(N)=O)S(=O)(=O)c1cccc(Nc2nc(Nc3cccc(S(=O)(=O)N(CCC(N)=O)CCC(N)=O)c3)nc(Nc3ccc(/C=C/c4ccc(Nc5nc(Nc6cccc(S(=O)(=O)N(CCC(N)=O)CCC(N)=O)c6)nc(Nc6cccc(S(=O)(=O)N(CCC(N)=O)CCC(N)=O)c6)n5)cc4S(=O)(=O)O)c(S(=O)(=O)O)c3)n2)c1 | – | – | – | 0.15

Continued by falling IC50 [1], values first:

IC50 [1] [µM] | IC50 [2] [µM] | IC50 [3] [µM] | IC50 [4] [µM] | SMILES
23.2 | 2.64 | 0.66 | – | NC(=O)CCNS(=O)(=O)c1cccc(Nc2nc(Nc3cccc(S(=O)(=O)NCCC(N)=O)c3)nc(Nc3ccc(-c4ccc(Nc5nc(Nc6cccc(S(=O)(=O)NCCC(N)=O)c6)nc(Nc6cccc(S(=O)(=O)NCCC(N)=O)c6)n5)cc4S(=O)(=O)O)c(S(=O)(=O)O)c3)n2)c1
19.5 | 13.9 | 0.08 | 0.05 | NC(=O)CCN(CCC(N)=O)S(=O)(=O)c1cccc(Nc2nc(Nc3cccc(S(=O)(=O)N(CCC(N)=O)CCC(N)=O)c3)nc(Nc3ccc(-c4ccc(Nc5nc(Nc6cccc(S(=O)(=O)N(CCC(N)=O)CCC(N)=O)c6)nc(Nc6cccc(S(=O)(=O)N(CCC(N)=O)CCC(N)=O)c6)n5)cc4S(=O)(=O)O)c(S(=O)(=O)O)c3)n2)c1
7.7 | 2.55 | 0.05 | – | NC(=O)CN(CC(N)=O)S(=O)(=O)c1cccc(Nc2nc(Nc3cccc(S(=O)(=O)N(CC(N)=O)CC(N)=O)c3)nc(Nc3ccc(-c4ccc(Nc5nc(Nc6cccc(S(=O)(=O)N(CC(N)=O)CC(N)=O)c6)nc(Nc6cccc(S(=O)(=O)N(CC(N)=O)CC(N)=O)c6)n5)cc4S(=O)(=O)O)c(S(=O)(=O)O)c3)n2)c1 [RF-1461]
